Laboratory results from ChEMBL document CHEMBL1681675, “3,5-diarylazoles as novel and selective inhibitors of protein kinase D” (Bioorg Med Chem Lett, 2011).
Values after ≈ are worked out from the molar mass of the structure shown.

How the values were obtained:
[1] = Solubility of the compound; format: physicochemical
[2] = AUC (0 to 8 hrs) in Sprague-Dawley rat at 2 mg/kg, iv or 5 mg/kg, po; format: ADME, organism-based; details: plasma
[3] = Oral bioavailability in Sprague-Dawley rat at 5 mg/kg; format: ADME, organism-based; details: in vivo
[4] = Volume of distribution at steady state in Sprague-Dawley rat at 2 mg/kg, iv or 5 mg/kg, po; format: ADME, organism-based; details: in vivo, read-out: Vdss

| SMILES | solubility [1] [µM] | further results |
| --- | --- | --- |
| N#CCNC(=O)c1cccc(-c2cc(-c3ccc(CNC4CCOCC4)cc3)on2)c1 | 170 (≈ 70.8 µg/mL) | – |
| CC(C)NC(=O)c1cccc(-c2cc(-c3ccc(CNCC(F)(F)F)cc3)[nH]n2)c1 | < 10 | – |
| COCCNC(=O)c1cccc(-c2cc(-c3ccc(N4CCN(C)CC4)cc3)[nH]n2)c1 | 760 (≈ 319 µg/mL) | – |
| CC(C)NCc1ccc(-c2cc(-c3cccc(C(=O)N[C@H](C)C#N)c3)[nH]n2)cc1 | > 990 | – |
| CC(C)NC(=O)c1cccc(-c2cc(-c3ccc(CNC4CC4)cc3)[nH]n2)c1 | 220 (≈ 82.4 µg/mL) | – |
| CN1CCN(c2ccc(-c3cc(-c4cccc(C(=O)NCC#N)c4)n[nH]3)cc2Br)CC1 | < 10 | – |
| CN1CCN(c2ccc(-c3cc(-c4cccc(C(=O)NCC#N)c4)no3)cc2)CC1 | < 10 | – |
| C[C@H](C#N)NC(=O)c1cccc(-c2cc(-c3ccc(CNC4CCOCC4)cc3)on2)c1 | 240 (≈ 103 µg/mL) | AUC(0-t) [2]: 0.84 µM·h; bioavailability [3]: 38%; Vd [4]: 6 L/kg |
| CN1CCN(c2ccc(-c3cc(-c4cccc(C(=O)NCCC#N)c4)n[nH]3)cc2)CC1 | 650 (≈ 269 µg/mL) | – |
| CC(C)NC(=O)c1cccc(-c2cc(-c3ccc(CNC4CCOCC4)cc3)on2)c1 | 140 (≈ 58.7 µg/mL) | – |
| CN1CCN(c2ccc(-c3cc(-c4cccc(C(=O)NCCO)c4)n[nH]3)cc2)CC1 | 170 (≈ 68.9 µg/mL) | – |
| CN1CCN(c2ccc(-c3cc(-c4cccc(C(=O)NCC(F)(F)F)c4)n[nH]3)cc2)CC1 | 170 (≈ 75.4 µg/mL) | – |
| CC(C)NC(=O)c1cccc(-c2cc(-c3ccc(N4CCN(C)CC4)c(-c4ccncc4)c3)[nH]n2)c1 | < 10 | – |
| C[C@@H](C#N)NC(=O)c1cccc(-c2cc(-c3ccc(CNC4CCOCC4)cc3)on2)c1 | 110 (≈ 47.4 µg/mL) | – |
| CC(C)NCc1ccc(-c2cc(-c3cccc(C(=O)N[C@H](C)C#N)c3)no2)cc1 | > 870 | – |
| CCCNC(=O)c1cccc(-c2cc(-c3ccc(N4CCN(C)CC4)cc3)[nH]n2)c1 | 330 (≈ 133 µg/mL) | – |
| CC(C)NC(=O)c1cccc(-c2cc(-c3ccc(N4CCN(C)CC4)c(-c4ccccc4)c3)[nH]n2)c1 | < 10 | – |
| CC(C)NCc1ccc(-c2cc(-c3cccc(C(=O)NC(C)C)c3)[nH]n2)cc1 | > 970 | – |
| C[C@@H](C#N)NC(=O)c1cccc(-c2cc(-c3ccc(N4CCN(C)CC4)cc3)on2)c1 | < 10 | – |
| C[C@H](C#N)NC(=O)c1cccc(-c2cc(-c3ccc(N4CCN(C)CC4)cc3)on2)c1 | < 10 | – |
| CC(C)NC(=O)c1cccc(-c2cc(-c3ccc(N4CCN(C)CC4)cc3)[nH]n2)c1 | 270 (≈ 109 µg/mL) | – |
| COCCNCc1ccc(-c2cc(-c3cccc(C(=O)NC(C)C)c3)n[nH]2)cc1 | 910 (≈ 357 µg/mL) | – |
| CN(C)CCNC(=O)c1cccc(-c2cc(-c3ccc(N4CCN(C)CC4)cc3)[nH]n2)c1 | > 960 | – |
| CN1CCN(c2ccc(-c3cc(-c4cccc(C(=O)NCC#N)c4)n[nH]3)cc2)CC1 | 50 (≈ 20 µg/mL) | – |
| CC(C)(C#N)NC(=O)c1cccc(-c2cc(-c3ccc(CNC4CCOCC4)cc3)on2)c1 | 70 (≈ 31.1 µg/mL) | – |
| CC(C)NC(=O)c1cccc(-c2cc(-c3ccc(N4CCN(C)CC4)c(Br)c3)[nH]n2)c1 | 40 (≈ 19.3 µg/mL) | – |
